Measured values: patent US20160184459A1, “CANCER CELL SPECIFIC IMAGING PROBES AND METHODS OF USE” (THE RESEARCH FOUNDATION FOR THE STATE UNIVERSITY OF NEW YORK, priority 2013, published 2016)
Where two headings read alike, the source gives them in different places. Residues, ends and D or L forms follow the SMILES beside them. *: point of attachment. Cbz = O=C(OCc1ccccc1)*

What was measured:
[1] = test system: HDAC and endogenous protease (cathepsin L) activity in BxPC3 and CFPac-1 cells; experiment: Live cell enzymatic assay with Boc-Lys(Ac)-AMC, release of AMC; type: cell-based; details: for Activation of substrate Boc-Lys(Ac)-AMC: substrate 25 μM, 6 hr
Description: FIG. 5. A. HDAC assay using different substrates in BxPC3 cells (shGFP and shSki). Cells were incubated with Boc-Lys(Ac)-AMC or Ac-Arg-Gly-Lys(Ac)-AMC (25 μM) for 1 hr with DMSO (vehicle) or TSA (1 μM) as indicated, followed by cell lysis and trypsin treatment, and fluorescence measurements. Data represent mean values of triplicate measurements±standard deviation. RFU, relative fluorescent units. B. Similar experiment was done as in A but without cell lysis and trypsin treatment. Cells were incubated with the substrates for 2.5 hr.
FIG. 6. A. Release of AMC by combined HDAC and endogenous protease-dependent enzymatic reaction in BxPC3 and CFPac-1 cells (shGFP and shSki). Cells were incubated with substrate Boc-Lys(Ac)-AMC (25 μM) for 6 hr with DMSO (vehicle), TSA (1 μM), or Z-FY-CHO (10 μM) as indicated, followed by fluorescence measurements. Data represent mean values of triplicate measurements±standard deviation. RFU, relative fluorescent units. B. Time course of AMC release in BxPC3 cells (shGFP and shSki). Each cells were incubated with Boc-Lys(Ac)-AMC (25 μM) for 2.5, 6.0, and 23 hr with DMSO (vehicle) or TSA (1 μM) as indicated.
Tissue culture based standard HDAC assays were performed by commercially available fluorimetric HDAC assay kit (SensoLyte, AnaSpec) according to the manufacturer's instruction with modification of using 25 μM Boc-Lys(Ac)-AMC (Bachem) as substrate and measuring parameter (Ex/Em=355 nm/460 nm) for AMC. […] After 15 m incubation at room temperature, the fluorescent signal of AMC was measured by SpectraMax M5 microplate reader (Molecular Devices) at Ex/Em=355 nm/460 nm. Live cell lysyl endopeptidase assay was performed by applying the substrate 25 μM Boc-Lys-AMC (Bachem) [either with DMSO or 100 μM Z-FY-CHO (EMD)] to the overnight culture seeded from 6×10^4 cells in 100 μl medium in 96-well tissue culture plates, followed by 20 h incubation at 37° C. with 5% CO2 atmosphere, then the fluorescent signal of AMC was measured. Live cell enzymatic assay using Boc-Lys(Ac)-AMC was performed by applying the substrate 25 μM Boc-Lys(Ac)-AMC (either with DMSO, 1 μM TSA or 100 μM Z-FY-CHO) to the overnight culture seeded from 6×10^4 cells in 100 μl medium in 96-well tissue culture plates, followed by 20 h incubation at 37° C. with 5% CO2 atmosphere, then the fluorescent signal of AMC was measured. […]
Fluorescence measurement was done at λex=390 nm and λem=460 nm for AMC. […] Cells were then lysed and the lysates incubated with exogenously added excess trypsin to cleave only those lysine residues that are de-acetylated and activate fluorescence. […]

BXPC3 cells = experiment: MTS cell viability assay with or without TSA; type: cell-based, human; details: 20 μM, 72 hr, TSA 50 nM
Description: FIG. 25. Selective cytotoxicity by BKAc-5FCR. Human pancreatic BXPC3 cells were treated with DMSO (vehicle), BKAc-5FCR (20 μM), or 5FCR (20 μM) for 72 hr with or without TSA (50 nM) followed by MTS cell viability assay. Representative phase contrast images of cells treated with DMSO (vehicle) or BKAc-5FCR (20 μM) for 72 hr with or without TSA (50 nM) are shown.

[2] = single administration, cited from earlier work
[3] = test system: non-malignant Caco-2 cells; experiment: MTS cell viability assay, Caco-2; type: cell-based, human; details: parental Puro, MTS, 3 d
Description: FIG. 13. Inhibition of cell viability by BKAc-Puro is presented in dose-response curve format for the same cell lines as in FIG. 8. The cell lines were treated with DMSO or the indicated doses of agent (4.22, 8.44, 16.9, 33.8, 67.5, or 135 μM) for 5 d followed by MTS assay. Data represent mean values of triplicate measurements±s.d. (n=3). IC50 values were fit by logistic regression.
FIG. 14. Inhibition of cell viability by parental Puro. The cell lines were treated with the indicated doses of Puro (0, 1.1, 2.1, 4.2, or 8.4 μM) for 3 d followed by MTS assay. Data represent mean values of triplicate measurements±s.d.
Cell number was determined by cell counting using improved Neubauer hemacytometer. Cell viability was calculated as the number of viable cells divided by the total number of cells using Trypan Blue Stain (Invitrogen) to distinguish non-viable cells. Data were obtained from duplicated samples with quadruplicate measurements. MTS based cell viability assay was performed using CellTiter 96 Aqueous Cell Proliferation Assay (Promega) according to the manufacturer's instruction. Either 1 μl of DMSO alone or variable concentrations of BKAc-Puro or Puro in DMSO were added to the cell lines seeded at 5×10^4 cells per well in 96-well tissue culture plates in 100 μl of the growth medium, followed by 3-5 d incubation at 37° C. with 5% CO2 atmosphere. Then 20 μl of the MTS reagent was added to each well. After additional 2-3 h incubation, the absorbance of the formazan at 490 nm was measured by the microplate reader. Percent cell viability was expressed relative to the wells containing cells treated with DMSO alone. Data were obtained from triplicate measurements. […] Determination of non-viable cells using PI staining was performed by adding 1 μg/ml of PI solution (Sigma) to the cell culture, prior to the examination under fluorescence microscopy (Axiovert 3, Carl Zeiss) through a×32 objective equipped with a digital imaging processor (Infinity 3, Lumenera).

[4] = test system: Puro-incorporated proteins in HCT116, HT29, CCD841-CoN and Caco-2 cells; experiment: Immunoblotting of Puro-incorporated proteins in cell lysates; type: cell-based, human; details: Puro 2.1 μM, 16 h, with or without TSA 0.5 μM
Description: (§1) FIG. 27. Levels of Puro-incorporated proteins in the cells were monitored by immunoblotting. Indicated cell lines were treated either with vehicle control DMSO or Boc-KAc-Puro (16.9 μM) in the presence or absence of TSA (0.5 μM) for 20 h, followed by preparation of cell lysates. The lower panel (anti-α-Tubulin) serves as a loading control.
as §1, with “28.” for “27.”, “Puro (2.1” for “Boc-KAc-Puro (16.9”, “16” for “20”, “lysates. […]” for “lysates.”
Cultured cells or tissue samples were sonicated in RIPA lysis buffer (1% NP-40, 0.1% SDS, 50 mM Tris-HCl pH 7.4, 150 mM NaCl, 0.5% sodium deoxycholate, 1 mM EDTA) supplemented with PMSF and protease inhibitor cocktail (Roche) on ice followed by clarification. Protein lysates were separated on sodium dodecyl sulfate-polyacrylamide gels and transferred onto nitrocellulose membranes (Whatman). The primary antibodies used were anti-puromycin (3RH11, KeraFAST) and anti-α-tubulin (Sigma-Aldrich). Proteins of interest were detected with anti-mouse secondary antibody by chemiluminescence (ECL Kit, GE Healthcare Life Sciences).

cells = experiment: 72 hr in vitro cytotoxicity with TSA; type: cell-based; details: TSA 1 μM
Text: The prodrugs that are synthesized may have some basal level of cytotoxicity before they are activated by HDAC3. One way to determine the IC50 values of the uncleaved forms of the prodrugs would be to use HDAC inhibitors both in vitro and in vivo. […] […] […] For example, among available HDAC inhibitors, SAHA (Vorinostat), a FDA approved pharmaceutical HDAC inhibitor (Bradner, J. E. et al. 2010), is known to inhibit all of these HDACs with much lower cytotoxicity than TSA. Thus, SAHA is an alternative HDAC inhibitor for the prodrug evaluation as well. By comparing the prodrug ICo values for cytotoxicity under conditions of HDAC inhibition with those values where HDACs are active we are able to provide data on the HDAC dependence of our new class of prodrugs.

BxPC3 cells (shGFP) = experiment: MTT cell viability assay, BxPC3 shGFP; type: cell-based; details: Homo sapiens, BXPC-3, 72 hr
Description: (§2) FIG. 24. Effect of the prodrug on cell viability of BxPC3 cells (shGFP and shSki). Cells were treated with the indicated dose of drugs (BKAc-5FCR or 5FCR) for 72 hr followed by MTT assay. Data represent mean values of triplicate measurements±standard deviation. IC50 values were derived from nonlinear curve fit of the dose response data using an outlier's exclusion, variable slope model (GraphPad Prism software). All values are means of at least two independent experiments.
(§3) The in vitro efficacy of the compounds in a series of BxPC3 and CFPac-1 derivatives with reduced Class I HDAC activity following Ski knockdown (shSki), HDAC3 knockdown and control (shGFP) was assessed. The growth inhibitory/viability effects of the compounds (IC50 value, the concentration resulting in 50% growth inhibition) on the various cell lines were determined by dose response curve analysis (GraphPad Prism software) of MTT [3-(4,5dimethylthiazol-2-yl)-2,5-diphenyl-tetrazolium bromide] cell viability assay. If the prodrugs are activated in an HDAC-dependent manner, the cells with reduced HDAC activity would be predicted to be more resistant to the prodrug treatment than control cells, while the effect of free parental drugs on both cells would be expected to be similar.

BxPC3 cells (shSki) = experiment: MTT cell viability assay, BxPC3 shSki; type: cell-based; details: Homo sapiens, BXPC-3, 72 hr
Description: as §2, §3

[5] = molecular target: T1, lysyl endopeptidase activity (CTSL) in live cells (Homo sapiens, UniProt P07711); experiment: Live cell lysyl endopeptidase assay with Boc-Lys-AMC; type: cell-based; details: Z-FY-CHO 100 μM, substrate 25 μM, 20 h
T1 construct: endogenous in cells; host or cells: Panel of cultured lines: Caco-2, COGA-10, HCA-7, HT29, HCT116, CCD841-CoN, MiaPaca-2, BXPC-3, HepG2, HeLa (human) and Eph4 (mouse)
Description: FIG. 2. Comparative live cell lysyl endopeptidase activity of the same cell lines as in FIG. 1 using substrate Boc-Lys-AMC either with vehicle control DMSO or Z-FY-CHO (100 μM). Data represent mean values of triplicate measurements±s.d. RFU, relative fluorescent units.
Tissue culture based standard HDAC assays were performed by commercially available fluorimetric HDAC assay kit (SensoLyte, AnaSpec) according to the manufacturer's instruction with modification of using 25 μM Boc-Lys(Ac)-AMC (Bachem) as substrate and measuring parameter (Ex/Em=355 nm/460 nm) for AMC. Basically, HDAC substrate 25 μM Boc-Lys(Ac)-AMC [either with DMSO or 1 μM TSA (Sigma)] was applied to the overnight culture seeded from 6×10^4 cells in 100 μl medium in 96-well tissue culture plates, followed by 2 to 3 h incubation at 37° C. with 5% CO2 atmosphere. […] After 15 m incubation at room temperature, the fluorescent signal of AMC was measured by SpectraMax M5 microplate reader (Molecular Devices) at Ex/Em=355 nm/460 nm. Live cell lysyl endopeptidase assay was performed by applying the substrate 25 μM Boc-Lys-AMC (Bachem) [either with DMSO or 100 μM Z-FY-CHO (EMD)] to the overnight culture seeded from 6×10^4 cells in 100 μl medium in 96-well tissue culture plates, followed by 20 h incubation at 37° C. with 5% CO2 atmosphere, then the fluorescent signal of AMC was measured. […]

T1 sequence (P07711 114-288 limits assumed): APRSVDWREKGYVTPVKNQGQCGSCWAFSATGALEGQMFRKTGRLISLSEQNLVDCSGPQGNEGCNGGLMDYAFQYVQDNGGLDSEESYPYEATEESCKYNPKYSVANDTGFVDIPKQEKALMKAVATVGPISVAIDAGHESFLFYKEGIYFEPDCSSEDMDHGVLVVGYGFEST
T1 sequence (P07711 292-333 limits assumed): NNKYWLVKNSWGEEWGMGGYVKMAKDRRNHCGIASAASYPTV

Structure (SMILES): CC(=O)NCCCC[C@H](NC(=O)OC(C)(C)C)C(=O)Nc1ccc2c(C)cc(=O)oc2c1 [Boc-Lys(Ac)-AMC]
- Time course of AMC release ([1]; BxPC3, 25 μM, over 20 hr): released linearly
- Activation in live cells relative to total HDAC activity ([1]; BxPC3 live cells, 25 μM, 2.5 hr, without lysis and trypsin): approximately 50%

Structure (SMILES): CC(=O)NCCCCC(NC(=O)OC(C)(C)C)C(=O)Nc1nc(=O)n([C@@H]2O[C@H](CO)[C@@H](O)[C@H]2O)cc1F (stereo partly drawn) [BKAc-5FCR, t-butyl (6-acetamido-1-((1-((2R,3R,4S,5R)-3,4-dihydroxy-5-(hydroxymethyl)tetrahydrofuran-2-yl)-5-fluoro-2-oxo-1,2-dihydropyrimidin-4-yl)amino)-1-oxohexan-2-yl) carbamate]
- Cytotoxic effect in the presence of HDAC inhibitor TSA (BXPC3 cells): substantially compromised

Structure (SMILES): COc1ccc(C[C@H](N)C(=O)N[C@H]2[C@@H](O)[C@H](n3cnc4c(N(C)C)ncnc43)O[C@@H]2CO)cc1 [Puro, puromycin]
- LD50 ([2]; intraperitoneally): 580 mg/kg
- LD50 ([2]; intravenously): 335 mg/kg
- LD50 ([2]; orally): 720 mg/kg
- Effect on cell viability [3]: effective
- Puro incorporation between cell lines regardless of TSA treatment [4]: no difference

Structure (SMILES): CC(/C=C/C(=O)NO)=C\[C@@H](C)C(=O)c1ccc(N(C)C)cc1 [TSA, Trichostatin A]
- Activation of substrate Boc-Lys(Ac)-AMC ([1]; TSA 1 μM): completely inhibited activation
- Cytotoxicity (cells): cytotoxic effect

Structure (SMILES): Nc1nc(=O)n([C@@H]2O[C@H](CO)[C@@H](O)[C@H]2O)cc1F [5FCR, 5-fluorocytidine]
- IC50 (BxPC3 cells (shGFP)): 1300 nM
- IC50 (BxPC3 cells (shSki)): 1200 nM

Structure (SMILES): O=C[C@H](Cc1ccc(O)cc1)NC(=O)[C@H](Cc1ccccc1)NC(=O)OCc1ccccc1 [Z-FY-CHO] (Cbz-Phe-Tyr-aldehyde)
- Release of AMC [5]: significantly blocked
- Activation of substrate Boc-Lys(Ac)-AMC ([1]; Z-FY-CHO 10 μM): completely abrogated
